Experimental findings from US6492421B1, “Substituted phenylalanine type compounds which inhibit leukocyte adhesion mediated by VLA-4” (Athena Neurosciences, Inc., priority 1997, dated 2002) are described below.

The subject of data set [1] is Experimental Autoimmune (or Allergic) Encephalomyelitis (“EAE”). In words: In vivo evaluation: Experimental Autoimmune Encephalomyelitis (EAE) model. Further details: species or system rats or guinea pigs. The note with it: treatment began on Day 8; 10 mg/kg to 200 mg/kg, bid, for five days; SC, PO or IP.

Square brackets hold non-standard residues; d marks the D form. Side chains are listed from the residue outwards. Peptide text beside a SMILES is read from it. * marks the point of attachment. Phe(4-NH2) = Nc1ccc(C[C@H](N)C(=O)O)cc1; Tos = Cc1ccc(S(=O)(=O)*)cc1; Boc = CC(C)(C)OC(=O)*; Cam = NC(=O)C*

`COC(=O)[C@H](Cc1ccc(OCCN2CCC(O)(c3ccccc3)CC2)cc1)NC(=O)[C@@H]1CCCN1S(=O)(=O)c1ccc(C)cc1` came in with a melting point of 122 to 123 °C.

On to `Cc1ccc(S(=O)(=O)N2CCC[C@H]2C(=O)N[C@@H](Cc2ccc(NC(=O)[C@@H](C)NC(=O)OC(C)(C)C)cc2)C(=O)O)cc1` [Example 5, N-(Toluene-4-sulfonyl)-L-prolyl-4-[(N-tert-butoxylcarbonyl-D-alanyl)amino]-L-phenylalanine] (Tos-Pro-[Phe(4-NH2)]([dA-Boc])-OH), for which, in data set [1], the “active in EAE model (delayed the onset of symptoms, e.g., clinical scores no greater than 2 or slowed body weight loss as compared to the control)” value is recorded as “active”.

Turning to `Cc1ccc(S(=O)(=O)N2CCC[C@H]2C(=O)N[C@@H](Cc2ccc(-c3ccccc3C(=O)O)cc2)C(=O)O)cc1` [Example 12, N-(Toluene4-sulfonyl)-L-prolyl-4-[2-(carboxy)phenyl]-L-phenylalanine], the “active in EAE model (delayed the onset of symptoms, e.g., clinical scores no greater than 2 or slowed body weight loss as compared to the control)” value in data set [1] is “active”. In turn, `COC(=O)[C@H](Cc1ccc(N(CCCN(C)C)S(=O)(=O)C(F)(F)F)cc1)NC(=O)[C@@H]1CCCN1S(=O)(=O)c1ccc(C)cc1` [Example 16, N-(Toluene-4-sulfonyl)-L-prolyl-L-4-{N-[3-(N,N-dimethylamino)propyl]-N-[trifluoromethanesulfonyl]amino}-L-phenylalanine Methyl Ester] showed a melting point of 45 to 55 °C. Turning to `Cc1ccc(S(=O)(=O)N2CCC[C@H]2C(=O)N[C@@H](Cc2ccc(OCCCN(C)C)cc2)C(=O)O)cc1` [Example 18, N-(Toluene-4-sulfonyl)-L-prolyl-4-[3-(N,N-dimethylamino)propoxy]-L-phenylalanine], the “active in EAE model (delayed the onset of symptoms, e.g., clinical scores no greater than 2 or slowed body weight loss as compared to the control)” value in data set [1] was “active”. Turning to `Cc1ccc(S(=O)(=O)N2CCC[C@H]2C(=O)N[C@@H](Cc2ccc(OCCN(C(C)C)C(C)C)cc2)C(=O)O)cc1` [Example 23, N-(Toluene-4-sulfonyl)-L-prolyl-4-[2-(N,N-diisopropylamino)ethoxy]-L-phenylalanine], the melting point is 121 to 124 °C. The same measure, in the same setting: with `CN(C)CCCOc1ccc(C[C@H](NC(=O)[C@@H]2CCCN2S(=O)(=O)c2cccs2)C(=O)O)cc1` [Example 24, N-(Thiophene-2-sulfonyl)-L-prolyl-4-[3-(N,N-dimethylamino)propoxy]-L-phenylalanine] the figure was greater than 200 °C; with `CCN(CC)CCOc1ccc(C[C@H](NC(=O)[C@@H]2CCCN2S(=O)(=O)c2ccc(C)cc2)C(=O)O)cc1` [Example 26, N-(Toluene-4-sulfonyl)-L-prolyl-4-[2-(N,N-diethylamino)ethoxy]-L-phenylalanine], 105 to 109 °C; with `CN(C)CCCOc1ccc(C[C@H](NC(=O)[C@@H]2CCCN2S(=O)(=O)c2cc(Cl)sc2Cl)C(=O)O)cc1` [Example 27, N-(2,5-Dichlorothiophene-3-sulfonyl)-L-prolyl-4-[3-(N,N-dimethylamino)propoxy]-L-phenylalanine], greater than 200 °C.

Turning to `Cc1ccc(S(=O)(=O)N2CCC[C@H]2C(=O)N[C@@H](Cc2ccc(OCCN3CCCCC3)cc2)C(=O)O)cc1` [Example 46, N-(Toluene-4-sulfonyl)-L-prolyl-4-[2-(piperidin-1-yl)ethoxy]-L-phenylalanine], the melting point lay within 102 to 106 °C. In turn, `Cc1ccc(S(=O)(=O)N2CCC[C@H]2C(=O)N[C@@H](Cc2ccc(OCC(=O)O)cc2)C(=O)O)cc1` [Example 56, N-(Toluene-4-sulfonyl)-L-prolyl-4-[(carboxy)methoxy]-L-phenylalanine] came in with a melting point of 70 to 73 °C. Still for that read-out and setting: next, `Cc1ccc(S(=O)(=O)N2CCC[C@H]2C(=O)N[C@@H](Cc2ccc(OCC(N)=O)cc2)C(=O)O)cc1` [Example 58, N-(Toluene-4-sulfonyl)-L-prolyl-4-[(aminocarbonyl)methoxy]-L-phenylalanine] (Tos-Pro-Tyr(Cam)-OH): 195 to 196 °C. The same measure, in the same setting: with `Cc1ccc(S(=O)(=O)N2CCC[C@H]2C(=O)N[C@@H](Cc2ccc(OCC(=O)NC(C)(C)C)cc2)C(=O)O)cc1` [Example 59, N-(Toluene-4-sulfonyl)-L-prolyl-4-[(N-tert-butylaminocarbonyl)methoxy]-L-phenylalanine] the figure was 88 to 89 °C. In the case of “N-(Toluene-4-sulfonyl)-L-(5,5-dimethyl)thiaprolyl-4-[2-(N,N-dimethylamino)ethoxy]-L-phenylalanine [Example 20]”, the “active in EAE model (delayed the onset of symptoms, e.g., clinical scores no greater than 2 or slowed body weight loss as compared to the control)” value in data set [1] was “active”.

In general, melting point refers to the temperature of the solid-liquid transition.
